From patent US6740642B2, “Macrolides with antibacterial activity” (BAsilea Parmaceutica AG, priority 2000, dated 2004)
Converted amounts (≈) assume the structure as drawn.

Legend:
St. pneumoniae 1/4 = test: MIC, standard microdilution; type: cell-based, Streptococcus pneumoniae; conditions: Streptococcus pneumoniae, read-out: minimum inhibitory concentration (MIC)
How it was run: (§1)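 Antibacterial activity was measured by the standard microdilution technique. The method followed the NCCLS dilution standard for aerobically growing bacteria (M7-A4).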

St. pneumoniae SL199T = test: MIC, standard microdilution; type: cell-based, Streptococcus pneumoniae; conditions: Streptococcus pneumoniae, read-out: minimum inhibitory concentration (MIC)
How it was run: as §1

St. pneumoniae 1/1 = test: MIC, standard microdilution; type: cell-based, Streptococcus pneumoniae; conditions: Streptococcus pneumoniae, read-out: minimum inhibitory concentration (MIC)
How it was run: as §1

St. pneumoniae 12288 = test: MIC, standard microdilution; type: cell-based, Streptococcus pneumoniae; conditions: Streptococcus pneumoniae, read-out: minimum inhibitory concentration (MIC)
How it was run: as §1

H. influenzae 4139 = test: MIC, agar dilution, HTM medium; type: cell-based, Haemophilus influenzae; conditions: Haemophilus influenzae, read-out: MIC
Description: (§2) The biological activities of compounds of the present invention against Haemophilus influenzae have been determined by standard agar dilution method using HTM medium (National Committee for Clinical Laboratory Standards. 1997. Methods for dilution antimicrobial susceptibility tests for bacteria that grow aerobically, 4th edition. Approved standard M7-A4. National Committee for Clinical Laboratory Standards, Wayne, Pa.).

H. influenzae 3201 = test: MIC, agar dilution, HTM medium; type: cell-based, Haemophilus influenzae; conditions: Haemophilus influenzae, read-out: MIC
Description: as §2

H. influenzae QK 50 = test: MIC, agar dilution, HTM medium; type: cell-based, Haemophilus influenzae; conditions: Haemophilus influenzae, QK50, read-out: MIC
Description: as §2

H. influenzae 23145 = test: MIC, agar dilution, HTM medium; type: cell-based, Haemophilus influenzae; conditions: Haemophilus influenzae, read-out: MIC
Description: as §2

H. influenzae QK 12/87 = test: MIC, agar dilution, HTM medium; type: cell-based, Haemophilus influenzae; conditions: Haemophilus influenzae, QK12/87, read-out: MIC
Description: as §2

H. influenzae 23369 = test: MIC, agar dilution, HTM medium; type: cell-based, Haemophilus influenzae; conditions: Haemophilus influenzae, read-out: MIC
Description: as §2

H. influenzae 3457 = test: MIC, agar dilution, HTM medium; type: cell-based, Haemophilus influenzae; conditions: Haemophilus influenzae, read-out: MIC
Description: as §2

H. influenzae Rd KW20 = test: MIC, agar dilution, HTM medium; type: cell-based, Haemophilus influenzae; conditions: Haemophilus influenzae, RDKW20, read-out: MIC
Description: as §2

H. influenzae 12214 = test: MIC, agar dilution, HTM medium; type: cell-based, Haemophilus influenzae; conditions: Haemophilus influenzae, read-out: MIC
Description: as §2

H. influenzae H20 HDL = test: MIC, agar dilution, HTM medium; type: cell-based, Haemophilus influenzae; conditions: Haemophilus influenzae, H20HDL, read-out: MIC
Description: as §2

H. influenzae 3640 = test: MIC, agar dilution, HTM medium; type: cell-based, Haemophilus influenzae; conditions: Haemophilus influenzae, read-out: MIC
Description: as §2

H. influenzae H28 HEL = test: MIC, agar dilution, HTM medium; type: cell-based, Haemophilus influenzae; conditions: Haemophilus influenzae, H28HEL, read-out: MIC
Description: as §2

H. influenzae 1 = test: MIC, agar dilution, HTM medium; type: cell-based, Haemophilus influenzae; conditions: Haemophilus influenzae, read-out: MIC
Description: as §2

H. influenzae Christy = test: MIC, agar dilution, HTM medium; type: cell-based, Haemophilus influenzae; conditions: Haemophilus influenzae, read-out: MIC
Description: as §2

H. influenzae H13 LAH = test: MIC, agar dilution, HTM medium; type: cell-based, Haemophilus influenzae; conditions: Haemophilus influenzae, H13LAH, read-out: MIC
Description: as §2

H. influenzae 2947 = test: MIC, agar dilution, HTM medium; type: cell-based, Haemophilus influenzae; conditions: Haemophilus influenzae, read-out: MIC
Description: as §2

H. influenzae ATCC 49247 = test: MIC, agar dilution, HTM medium; type: cell-based, Haemophilus influenzae; conditions: Haemophilus influenzae, ATCC49247, read-out: MIC
Description: as §2

H. influenzae 11 = test: MIC, agar dilution, HTM medium; type: cell-based, Haemophilus influenzae; conditions: Haemophilus influenzae, read-out: MIC
Description: as §2

H. influenzae H36 ODL = test: MIC, agar dilution, HTM medium; type: cell-based, Haemophilus influenzae; conditions: Haemophilus influenzae, H36ODL, read-out: MIC
Description: as §2

H. influenzae B 1501 = test: MIC, agar dilution, HTM medium; type: cell-based, Haemophilus influenzae; conditions: Haemophilus influenzae, B1501, read-out: MIC
Description: as §2

H. influenzae ATCC 9334 = test: MIC, agar dilution, HTM medium; type: cell-based, Haemophilus influenzae; conditions: Haemophilus influenzae, ATCC9334, read-out: MIC
Description: as §2

S. aureus ATCC29213 = test: MIC, standard microdilution; type: cell-based, Staphylococcus aureus; conditions: Staphylococcus aureus, read-out: minimum inhibitory concentration (MIC)
How it was run: as §1

S. aureus 1086 = test: MIC, standard microdilution; type: cell-based, Staphylococcus aureus; conditions: Staphylococcus aureus, read-out: minimum inhibitory concentration (MIC)
How it was run: as §1

S. aureus 745 = test: MIC, standard microdilution; type: cell-based, Staphylococcus aureus; conditions: Staphylococcus aureus, read-out: minimum inhibitory concentration (MIC)
How it was run: as §1

E. coli ATCC25922 = test: MIC, standard microdilution; type: cell-based; conditions: Escherichia coli, read-out: minimum inhibitory concentration (MIC)
How it was run: as §1

[1] = test system: P. aeruginosa ATCC27853 (+Ery. 32 μg/ml); test: MIC, standard microdilution; type: cell-based
How it was run: as §1

Compound | MIC (St. pneumoniae 1/4) | MIC (St. pneumoniae SL199T) | MIC (St. pneumoniae 1/1) | MIC (St. pneumoniae 12288) | MIC (H. influenzae 4139) | MIC (H. influenzae 3201) | MIC (H. influenzae QK 50) | MIC (H. influenzae 23145) | MIC (H. influenzae QK 12/87) | MIC (H. influenzae 23369) | MIC (H. influenzae 3457) | MIC (H. influenzae Rd KW20) | MIC (H. influenzae 12214) | MIC (H. influenzae H20 HDL) | MIC (H. influenzae 3640) | MIC (H. influenzae H28 HEL) | MIC (H. influenzae 1) | MIC (H. influenzae Christy) | MIC (H. influenzae H13 LAH) | MIC (H. influenzae 2947) | also measured
CC[C@H]1OC(=O)[C@H](C)C(=O)[C@H](C)[C@@H](O[C@@H]2O[C@H](C)C[C@H](N(C)C)[C@H]2O)[C@](C)(OC)C[C@@H](C)C(=O)[C@H](C)[C@H]2[C@H](SCCn3cnc4c(N)ncnc43)C(=O)O[C@@]21C [Compound I-14, (3S,3aR,4R,6R,8R,9R,10R,12R,15R,15aS)-3-[[2-[6-Amino-9H-purine-9-yl]ethyl]thio]-15-ethyloctahydro-8-methoxy-4,6,8,10,12,15a-hexamethyl-9-[[3,4,6-trideoxy-3-(dimethylamino)-β-D-xylo-hexopyranosyl]oxy]-2H-furo[2,3-c]oxacyclotetradecin-2,5,11,13(3H,6H,12H)-tetrone] | 0.25 µg/mL (≈ 0.311 µM) | 0.25 µg/mL (≈ 0.311 µM) | ≤ 0.12 µg/mL | 0.25 µg/mL (≈ 0.311 µM) | 2 µg/mL (≈ 2.48 µM) | 4 µg/mL (≈ 4.97 µM) | 2 µg/mL (≈ 2.48 µM) | 4 µg/mL (≈ 4.97 µM) | 0.5 µg/mL (≈ 0.621 µM) | 4 µg/mL (≈ 4.97 µM) | 0.25 µg/mL (≈ 0.311 µM) | 4 µg/mL (≈ 4.97 µM) | 2 µg/mL (≈ 2.48 µM) | 1 µg/mL (≈ 1.24 µM) | 2 µg/mL (≈ 2.48 µM) | 2 µg/mL (≈ 2.48 µM) | 1 µg/mL (≈ 1.24 µM) | 2 µg/mL (≈ 2.48 µM) | 2 µg/mL (≈ 2.48 µM) | 2 µg/mL (≈ 2.48 µM) | MIC (H. influenzae ATCC 49247): 1 µg/mL (≈ 1.24 µM); MIC (H. influenzae 11): 4 µg/mL (≈ 4.97 µM); MIC (H. influenzae H36 ODL): 2 µg/mL (≈ 2.48 µM); MIC (H. influenzae B 1501): 1 µg/mL (≈ 1.24 µM); MIC (H. influenzae ATCC 9334): 4 µg/mL (≈ 4.97 µM); MIC (S. aureus ATCC29213): ≤ 0.12 µg/mL; MIC (S. aureus 1086): ≤ 0.12 µg/mL; MIC (S. aureus 745): > 16 µg/mL; MIC (E. coli ATCC25922): 8 µg/mL (≈ 9.94 µM); minimum inhibitory concentration (MIC) [1]: >16 µg/mL
CC[C@H]1OC(=O)[C@H](C)[C@@H](O[C@H]2C[C@@](C)(OC)[C@@H](O)[C@H](C)O2)[C@H](C)[C@@H](O[C@@H]2O[C@H](C)C[C@H](N(C)C)[C@H]2O)[C@](C)(O)C[C@@H](C)C(=O)[C@H](C)[C@@H](O)[C@]1(C)O [Erythromycin (1), erythromycin A] | 32 µg/mL (≈ 43.6 µM) | > 32 µg/mL | ≤ 0.12 µg/mL | > 32 µg/mL | 1 µg/mL (≈ 1.36 µM) | 4 µg/mL (≈ 5.45 µM) | 4 µg/mL (≈ 5.45 µM) | 4 µg/mL (≈ 5.45 µM) | 2 µg/mL (≈ 2.73 µM) | 4 µg/mL (≈ 5.45 µM) | 0.5 µg/mL (≈ 0.681 µM) | 4 µg/mL (≈ 5.45 µM) | 4 µg/mL (≈ 5.45 µM) | 2 µg/mL (≈ 2.73 µM) | 2 µg/mL (≈ 2.73 µM) | 2 µg/mL (≈ 2.73 µM) | 4 µg/mL (≈ 5.45 µM) | 4 µg/mL (≈ 5.45 µM) | 4 µg/mL (≈ 5.45 µM) | 4 µg/mL (≈ 5.45 µM) | MIC (H. influenzae ATCC 49247): 4 µg/mL (≈ 5.45 µM); MIC (H. influenzae 11): 4 µg/mL (≈ 5.45 µM); MIC (H. influenzae H36 ODL): 4 µg/mL (≈ 5.45 µM); MIC (H. influenzae B 1501): 4 µg/mL (≈ 5.45 µM); MIC (H. influenzae ATCC 9334): 4 µg/mL (≈ 5.45 µM); MIC (S. aureus ATCC29213): 0.5 µg/mL (≈ 0.681 µM); MIC (S. aureus 1086): > 32 µg/mL; MIC (S. aureus 745): > 64 µg/mL; MIC (E. coli ATCC25922): > 16 µg/mL; minimum inhibitory concentration (MIC) [1]: >16 µg/mL
CC[C@H]1OC(=O)[C@H](C)C(=O)[C@H](C)[C@@H](O[C@@H]2O[C@H](C)C[C@H](N(C)C)[C@H]2O)[C@](C)(OC)C[C@@H](C)C(=O)[C@H](C)[C@H]2N(CCCCn3cnc(-c4cccnc4)c3)C(=O)O[C@]12C [Telithromycin (4), telithromycin] | ≤ 0.12 µg/mL | ≤ 0.12 µg/mL | ≤ 0.12 µg/mL | 0.25 µg/mL (≈ 0.308 µM) | 2 µg/mL (≈ 2.46 µM) | 4 µg/mL (≈ 4.93 µM) | 2 µg/mL (≈ 2.46 µM) | 4 µg/mL (≈ 4.93 µM) | 1 µg/mL (≈ 1.23 µM) | 4 µg/mL (≈ 4.93 µM) | 0.25 µg/mL (≈ 0.308 µM) | 4 µg/mL (≈ 4.93 µM) | 4 µg/mL (≈ 4.93 µM) | 2 µg/mL (≈ 2.46 µM) | 2 µg/mL (≈ 2.46 µM) | 2 µg/mL (≈ 2.46 µM) | 4 µg/mL (≈ 4.93 µM) | 4 µg/mL (≈ 4.93 µM) | 2 µg/mL (≈ 2.46 µM) | 4 µg/mL (≈ 4.93 µM) | MIC (H. influenzae ATCC 49247): 4 µg/mL (≈ 4.93 µM); MIC (H. influenzae 11): 4 µg/mL (≈ 4.93 µM); MIC (H. influenzae H36 ODL): 4 µg/mL (≈ 4.93 µM); MIC (H. influenzae B 1501): 2 µg/mL (≈ 2.46 µM); MIC (H. influenzae ATCC 9334): 2 µg/mL (≈ 2.46 µM); MIC (S. aureus ATCC29213): ≤ 0.12 µg/mL; MIC (S. aureus 1086): ≤ 0.12 µg/mL; MIC (S. aureus 745): > 64 µg/mL; MIC (E. coli ATCC25922): 16 µg/mL (≈ 19.7 µM); minimum inhibitory concentration (MIC) [1]: >16 µg/mL
